Reference: patent publication US7759510B2, “Platinum complexes and methods of use” (University of South Florida, priority 2003, dated 2010)
Entries after “also recorded” stand apart in the source; their conditions may differ. Read-outs that look alike come from different tables or passages of the source.

Key:
Stat3 [1] = molecular target: T1, Stat3 (Mus musculus, UniProt P42227); test: EMSA of nuclear extracts, Stat3 DNA-binding activity to hSIE probe; assay type: biochemical; conditions: in vitro
T1 construct: Nuclear extracts were prepared from NIH3T3/hEGFR cell that overexpress human epidermal growth factor (EGF) receptor and stimulated with EGF; endogenous in cells; host or cells: NIH3T3/hEGFR fibroblasts, EGF-stimulated (6 ng/ml, 15 min), nuclear extract
T1 sequence (P42227 whole entry): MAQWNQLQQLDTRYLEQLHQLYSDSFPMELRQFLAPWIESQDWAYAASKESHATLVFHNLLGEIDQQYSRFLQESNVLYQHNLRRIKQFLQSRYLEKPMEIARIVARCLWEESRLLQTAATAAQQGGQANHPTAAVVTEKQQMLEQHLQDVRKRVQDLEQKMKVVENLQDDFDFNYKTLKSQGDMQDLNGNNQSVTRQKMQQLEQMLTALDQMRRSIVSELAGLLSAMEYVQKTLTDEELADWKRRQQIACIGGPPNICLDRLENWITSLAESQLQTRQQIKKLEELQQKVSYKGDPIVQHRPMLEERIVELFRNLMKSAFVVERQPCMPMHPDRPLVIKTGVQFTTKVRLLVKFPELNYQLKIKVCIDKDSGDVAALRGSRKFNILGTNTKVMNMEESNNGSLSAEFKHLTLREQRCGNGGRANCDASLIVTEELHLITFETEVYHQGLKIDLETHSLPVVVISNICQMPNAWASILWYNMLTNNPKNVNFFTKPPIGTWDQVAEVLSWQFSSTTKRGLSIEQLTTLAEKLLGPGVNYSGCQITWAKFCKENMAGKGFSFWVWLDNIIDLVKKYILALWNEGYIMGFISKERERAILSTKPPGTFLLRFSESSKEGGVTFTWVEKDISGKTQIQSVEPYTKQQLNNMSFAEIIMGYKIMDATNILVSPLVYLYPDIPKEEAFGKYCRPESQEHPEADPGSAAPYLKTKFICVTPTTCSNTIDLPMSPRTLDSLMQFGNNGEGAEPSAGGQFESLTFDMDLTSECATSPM
Procedure: Nuclear Extract Preparation and Analysis by EMSA of HK-Designated Platinum Complexes.
Nuclear extracts were prepared from NIH3T3/hEGFR cell that overexpress human epidermal growth factor (EGF) receptor and stimulated with EGF (6 ng/ml) for 15 min. Nuclear extracts were pre-incubated with compounds for 30 min at room temperature prior to incubation with radiolabeled probe. The ^32P-labeled oligonucleotide probe used is hSIE (high affinity sis-inducible element, m67 variant, 5′-[…]-3′) (SEQ ID NO:1) that binds both Stat1 and Stat3.
Other platinum (IV) complexes were evaluated for inhibitory activity against STAT DNA-binding in vitro.

A549 cells = test: MTT assay, percent survival of A549 cells; assay type: cell-based; conditions: A549; for IC50: Table 2, read-out: Calculated IC 50 (uM concentration)
Procedure: 1. Prepare a suspension of A549 cells at 2×10^5 cells per mL in supplemented DMEM/F12 growth medium.
2. Plate 2×10^4 cells per well in a 96 well cell culture plate by adding 100 μL of stock suspension to each well.
3. For each platinum compound (already in solution), prepare a readily usable stock solution in DMEM/F12 medium.
4. For each compound generate triplicate trials of 0, 10, 20, 30, 40, 50, 60, and 70 μM concentration. This is achieved in situ by adding appropriate volumes of stock solution to each well along with the volume of untreated medium necessary to generate the desired concentration in a final volume of 200 μL.
5. Gently agitate plates to mix contents. Incubate at 37° C., 7% CO2 for 45 hours.
6. Add 20 μL of 5 mg/mL MTT solution (in PBS) to each well.
7. Gently agitate plates to mix contents and incubate an additional 3 hours to allow product development.
8. Remove plates from incubator and agitate to cause settling of formazan product.
9. Aspirate out liquid contents of each well using needle and syringe and discard.
10. Add 200 μL DMSO to each well to dissolve formazan product.
11. Agitate plates until all of the formazan product is in solution and no purple crystals remain on the bottom surface of the wells.
12. Read the absorbance of each well at […] using Varian software for Cary 50 UV-vis Spectrophotometer with fiber optic probe accessory.
(§1) MTT assays are used for the quantitative determination of cellular proliferation and activation and for the quantitation of in vitro tumor cell sensitivity to anti-cancer compounds. The assay is based on the cleavage of the yellow tetrazolium salt MTT into purple colored formazan by metabolically active cells. Solubilized formazan product can be photometrically quantitated using an ELISA plate reader. A decrease in the number of living cells results in a decrease in total metabolic activity which leads to a decrease in color formation. Platinum complexes of the present invention were tested in MTT assays using A549 cells to determine anti-cancer cell activity. […] FIGS. 1, 2, and 4 show percent survival versus platinum complex concentration in graphical form.
as §1, with “FIGS. 8, 9,” for “FIGS. 1, 2,”, “and 11” for “and 4”

Stat3 [2] = test: Stat3 signaling, growth inhibition and apoptosis in cells that contain constitutive Stat3 activity; assay type: cell-based; conditions: Src-transformed mouse fibroblasts, human tumor cells of the breast, prostate, mouse melanoma cells
Excerpt: Methods of the invention comprise inhibiting function of a STAT by contacting a cell expressing a STAT with a platinum complex of the invention wherein the complex is taken in or otherwise provided inside the cell. Platinum complexes of the invention can physically interact with the DNA-binding domain of Stat3 and thereby disrupts its ability to bind to DNA.

[3] = Reduction of CPA-7 platinum complex by glutathione (UV kinetics at 226 nm); assay type: physicochemical; conditions: 20 μm CPA-7 in PBS/20% DMSO with 10 mM glutathione
Procedure: FIGS. 5A-C show inertness of CPA-7 platinum complex to reduction by glutathione. 20 μm CPA-7 in PBS/20% DMSO with […]. […] Reduction is attributed to room light.
FIGS. 5A-C show the inertness of CPA-7 to glutathione reduction. In the figures, 20 μm CPA-7 was added in PBS/20% DMSO with 10 mM glutathione. The readings were initiated in late evening where data points were collected every 10 minutes at the lambda max for CPA-7, 226 nm. […] Data was collected on a Varian Cary 50 fitted with a fibreoptic probe in the kinetics mode. The Cary 50 uses a pulsed Xenon lamp with discontinuous irradiation between readings. A 25-mL volumetric flask was used for the solution with a magnetic stirring bar at slow speed.

[4] = extrapolated from incomplete data (10-40 uM; CPA-31 10-30 μM), outside the measured range
[5] = linear trend from percent survival vs. concentration data of Table 1

Structure (SMILES)	Disruption of Stat3 activity / ability to bind its consensus binding sequence (Stat3 [1])	Average Absorbance (A549 cells; Table 1, 10 μM)	Percent Survival (A549 cells; Table 1, 10 μM) [%]	Average Absorbance (A549 cells; Table 1, 20 μM)	Percent Survival (A549 cells; Table 1, 20 μM) [%]	Average Absorbance (A549 cells; Table 1, 30 μM)	Percent Survival (A549 cells; Table 1, 30 μM) [%]	Average Absorbance (A549 cells; Table 1, 40 μM)	Percent Survival (A549 cells; Table 1, 40 μM) [%]	Average Absorbance (A549 cells; Table 3, 10 μM)	Percent Survival (A549 cells; Table 3, 10 μM) [%]	Average Absorbance (A549 cells; Table 3, 20 μM)	Percent Survival (A549 cells; Table 3, 20 μM) [%]	Average Absorbance (A549 cells; Table 3, 30 μM)	Percent Survival (A549 cells; Table 3, 30 μM) [%]	Average Absorbance (A549 cells; Table 3, 40 μM)	Percent Survival (A549 cells; Table 3, 40 μM) [%]	Average Absorbance (A549 cells; Table 3, 50 μM)	Percent Survival (A549 cells; Table 3, 50 μM) [%]	Average Absorbance (A549 cells; Table 3, 60 μM)	also measured
[NH2][Pt]([NH2])([Cl])([Cl])[N+](=O)[O-].c1ccc(-c2oc(-c3ccccc3)c3ccccc23)cc1 [CPA-41]	strongly disrupt Stat3 activity	2.3706	100.4024	2.3827	100.9148	2.1124	89.4668	0.8648	36.6270	2.4500	100.2906	2.3805	97.4457	1.4686	60.1171	0.4210	17.2336	0.3647	14.9290	0.5549	IC50 (A549 cells; [4]): 40.7 µM; Percent Survival (A549 cells; Table 3, 60 μM): 22.7148%; Average Absorbance (A549 cells; Table 3, 70 μM): 0.5445; Percent Survival (A549 cells; Table 3, 70 μM): 22.2891%
N[N](c1cc([N+](=O)[O-])cc([N+](=O)[O-])c1)[Pt]([NH2])([NH2])([Cl])([Cl])[N+](=O)[O-] [CPA-43]	strongly disrupt Stat3 activity	2.4150	102.2828	1.8554	78.5820	2.1451	90.8517	1.3030	55.1861	2.5840	105.7759	2.2922	93.8311	1.4833	60.7188	0.6479	26.5218	0.4641	18.9979	0.6504	IC50 (A549 cells; [4]): 49.6 µM; Percent Survival (A549 cells; Table 3, 60 μM): 26.6241%; Average Absorbance (A549 cells; Table 3, 70 μM): 0.5059; Percent Survival (A549 cells; Table 3, 70 μM): 20.7090%
[NH2][Pt]([NH2])([Cl])([Cl])([Cl])[N+](=O)[O-] [CPA-7]	strongly disrupt Stat3 activity																				Cell growth inhibition and apoptosis (Stat3 [2]): induce cell growth inhibition and apoptosis; Stat3 signaling function (Stat3 [2]): abrogate Stat3 signaling function; Reduction by glutathione (GSH) [3]: stability against GSH reduction; also recorded: not appreciably reduced by GSH; Sensitivity to light (reduction by room light) [3]: sensitivity to light
[NH2][Pt]([NH2])([Cl])([Cl])([N]1C(=O)CC(C(=O)O)NC1=O)[N+](=O)[O-] (centres unmarked) [CPA-55]	strongly disrupt Stat3 activity	2.4481	103.6847	2.3731	100.5082	2.3268	98.5473	1.3780	58.3626	2.4587	100.6468	2.4875	101.8257	1.6902	69.1883	0.6503	26.6200	0.4894	20.0336	0.7082	IC50 (A549 cells; [4]): 54.2 µM; Percent Survival (A549 cells; Table 3, 60 μM): 28.9901%; Average Absorbance (A549 cells; Table 3, 70 μM): 0.5733; Percent Survival (A549 cells; Table 3, 70 μM): 23.4680%
[NH2][Pt]([NH2])([Cl])([Cl])([N+](=O)[O-])[o+]1c2cc(=O)ccc-2c(-c2ccccc2C(=O)O)c2ccc(O)cc21 [CPA-39]	strongly disrupt Stat3 activity	2.5313	107.2085	2.4307	102.9478	2.3599	99.9492	1.9611	83.0587	2.6556	108.7069	2.4616	100.7655	2.0894	85.5295	1.3568	55.5405	0.6566	26.8779	0.6086	Average Absorbance (A549 cells; Table 1, 50 μM): 1.0318; Percent Survival (A549 cells; Table 1, 50 μM): 43.7000%; Average Absorbance (A549 cells; Table 1, 60 μM): 0.7776; Percent Survival (A549 cells; Table 1, 60 μM): 32.9338%; Average Absorbance (A549 cells; Table 1, 70 μM): 0.9798; Percent Survival (A549 cells; Table 1, 70 μM): 41.4976%; IC50 (A549 cells; [5]): 56.4 µM; Percent Survival (A549 cells; Table 3, 60 μM): 24.9130%; Average Absorbance (A549 cells; Table 3, 70 μM): 0.6166; Percent Survival (A549 cells; Table 3, 70 μM): 25.2405%
O=[N+]([O-])[Pt]1([Cl])([Cl])([Cl])[NH]CC[NH]1 [CPA-1]																					Cell growth inhibition and apoptosis (Stat3 [2]): induce cell growth inhibition and apoptosis; Stat3 signaling function (Stat3 [2]): abrogate Stat3 signaling function
CCN(CC)c1ccc2c(-c3ccccc3C(=O)O)c3ccc(=[N+](CC)CC)cc-3[o+]([Pt]([NH2])([NH2])([Cl])([Cl])[N+](=O)[O-])c2c1.[Cl-] [CPA-46]	strongly disrupt Stat3 activity	2.4032	101.7831	2.2978	97.3190	2.2671	96.0188	1.8618	78.8531	2.5773	105.5017	2.4118	98.7269	1.9637	80.3840	1.2044	49.3021	0.6282	25.7153	0.6446	Average Absorbance (A549 cells; Table 1, 50 μM): 1.0285; Percent Survival (A549 cells; Table 1, 50 μM): 43.5602%; Average Absorbance (A549 cells; Table 1, 60 μM): 0.7041; Percent Survival (A549 cells; Table 1, 60 μM): 29.8208%; IC50 (A549 cells; [5]): 52.9 µM; Percent Survival (A549 cells; Table 3, 60 μM): 26.3867%; Average Absorbance (A549 cells; Table 3, 70 μM): 0.6165; Percent Survival (A549 cells; Table 3, 70 μM): 25.2364%
